The results in this text go back to patent publication US20040228820A1, “Compositions comprising an amidine and an alkane polyol” (The Procter & Gamble Company, priority 2003, published 2004).

Molecules are shown by their SMILES.

This data set in a line: Stabilisation of amidines in aqueous solution by alkane polyols.
Description: The compositions of the present invention also comprise an alkane polyol having an N-octanol/water partition coefficient (ClogP) of from +0.2 to +1.55. […] The ClogP values of these materials indicate their hydrophilic/lipophilic balance. Alkane polyols having a ClogP value of between +0.2 and +1.55 are slightly lipophilic, enabling them to interact with the amidines. However, the alkane polyols herein maintain a high enough solubility in water due to the presence of the hydroxy moieties to allow them to maintain the amidine in solution.
Turning to `CCCC(O)CO` (centres unmarked) [1,2 Pentanediol], the “Stabilises Amidines?” value is given as “No”.

Regarding `CCCCCC(O)CO` (centres unmarked) [1,2-heptanediol], the “Stabilises Amidines?” value is reported as “Yes”.

On to `CCCCC(O)CO` (centres unmarked) [1,2-hexanediol], for which the “Stabilises Amidines?” value is listed as “Yes”.

On to `CCCCCCC(O)CO` (centres unmarked) [1,2-octanediol], for which the “Stabilises Amidines?” value is recorded as “Yes”.

For `OCCCCCCCO` [1,7-heptanediol], the “Stabilises Amidines?” value is “Yes”.

As for `OCCCCCCCCCO` [1,9-nonanediol], the “Stabilises Amidines?” value is listed as “Yes”.

In the case of `OCCCCCCCCCCO` [1,10-decanediol], the “Stabilises Amidines?” value is given as “No”.

For the molecule `CC(O)CCC(C)O` (centres unmarked) [2,5-hexanediol], the “Stabilises Amidines?” value was “No”.
